Measurements: patent publication US20170159101A1, “DRUG-RESISTANT P97 ATPASE MUTATIONS” (Cleave Biosciences, Inc., priority 2014, published 2017)
Several values for one entry are separate records, joined by “and”; a condition that tells them apart may be missing. Identical values can stand only once.

Experiments:
Format in all cases: cell-based, human
[1] = system: Hct116 resistant cell line clone #1 (p97 D649N); experiment: GI50 fold-change, resistant clone #1 vs parental; conditions: Clone #1, Hct116, resistance generated with compound 2, G1945A / D649N; 72 hrs
Method: (§1) Dose titration of test compounds were conducted in Hct116, DLD-1, or LoVo cell lines. In brief, cells were plated in 384-well plates and a selected candidate drug compound was added in a 10-point 2-fold serial dilution.

[2] = system: DLD-1 resistant cell line clone #58 (p97 D649D/N); experiment: GI50 fold-change, resistant clone #58 vs parental; conditions: Clone #58, DLD-1, resistance generated with compound 4, G1945G/A / D649D/N; 72 hrs
Method: as §1

[3] = system: DLD-1 resistant cell line clone #61 (p97 I620I/L); experiment: GI50 fold-change, resistant clone #61 vs parental; conditions: Clone #61, DLD-1, resistance generated with compound 4, T1859T/C / I620I/L; 72 hrs
Method: as §1

[4] = system: DLD-1 resistant cell line clone #64 (p97 N660N/S); experiment: GI50 fold-change, resistant clone #64 vs parental; conditions: Clone #64, DLD-1, resistance generated with compound 4, A1979G/A / N660N/S; 72 hrs
Method: as §1

[5] = system: DLD-1 resistant cell line clone #83 (p97 N660N/D); experiment: GI50 fold-change, resistant clone #83 vs parental; conditions: Clone #83, DLD-1, resistance generated with compound 4, A1978G/A / N660N/D; 72 hrs
Method: as §1

[6] = system: DLD-1 resistant cell line clone #87 (p97 S541P); experiment: GI50 fold-change, resistant clone #87 vs parental; conditions: Clone #87, DLD-1, resistance generated with compound 4, T1621T/C / S541P; 72 hrs
Method: as §1

[7] = system: Hct116 resistant cell line clone #108 (p97 P646T); experiment: GI50 fold-change, resistant clone #108 vs parental; conditions: Clone #108, Hct116, resistance generated with compound 4, C1936A / P646T; 72 hrs
Method: (§2) Dose titration of test compounds were conducted in Hct116, DLD-1, or LoVo cell lines. In brief, cells were plated in 384-well plates and a selected candidate drug compound was added in a 10-point 2-fold serial dilution. […] Hct116 cells were plated at 50,000 cells per 15 cm dish and treated with GI50-GI90 doses of test compound for 2-4 weeks until individual colonies of cells were visible on the plate.

[8] = system: Hct116 resistant cell line clone #152 (p97 T688I); experiment: GI50 fold-change, resistant clone #152 vs parental; conditions: Clone #152, Hct116, resistance generated with compound 4, C2063T / T688I, 72 hrs
Method: as §2

[9] = system: LoVo resistant cell line clone #221 (p97 V474V/A); experiment: GI50 fold-change, resistant clone #221 vs parental; conditions: Clone #221, LoVo, resistance generated with compound 4, T1421C/T / V474V/A; 72 hrs
Method: as §2

[10] = system: Hct116 resistant cell line clone #6 (p97 A528T); experiment: GI50 fold-change, resistant clone #6 vs parental; conditions: Clone #6, Hct116, resistance generated with compound 2, G1582 / A528T; 72 hrs
Method: as §1

[11] = system: Hct116 resistant cell line clone #25 (p97 P500T); experiment: GI50 fold-change, resistant clone #25 vs parental; conditions: Clone #25, Hct116, resistance generated with compound 4, C1498A / P500T; 72 hrs
Method: as §1

[12] = system: Hct116 resistant cell line clone #30 (p97 F516L); experiment: GI50 fold-change, resistant clone #30 vs parental; conditions: Clone #30, Hct116, resistance generated with compound 4, T1546C / F516L; 72 hrs
Method: as §1

[13] = system: Hct116 resistant cell line clone #42 (p97 P472A); experiment: GI50 fold-change, resistant clone #42 vs parental; conditions: Clone #42, Hct116, resistance generated with compound 4, C1414G / P472A; 72 hrs
Method: as §1

[14] = system: Hct116 resistant cell line clone #45 (p97 F539I); experiment: GI50 fold-change, resistant clone #45 vs parental; conditions: Clone #45, Hct116, resistance generated with compound 4, T1615A / F539I; 72 hrs
Method: as §1

[15] = system: DLD-1 resistant cell line clone #82 (p97 A569A/T); experiment: GI50 fold-change, resistant clone #82 vs parental; conditions: Clone #82, DLD-1, resistance generated with compound 4, G1705G/A / A569A/T; 72 hrs
Method: as §1

[16] = system: Hct116 resistant cell line clone #117 (p97 L482I); experiment: GI50 fold-change, resistant clone #117 vs parental; conditions: Clone #117, Hct116, resistance generated with compound 4, C1444A / L482I; 72 hrs
Method: as §1

[17] = system: Hct116 resistant cell line clone #139 (p97 P472S); experiment: GI50 fold-change, resistant clone #139 vs parental; conditions: Clone #139, Hct116, resistance generated with compound 4, C1414T / P472S; 72 hrs
Method: as §1

[18] = system: Hct116 resistant cell line clone #22 (p97 N660D); experiment: GI50 fold-change, resistant clone #22 vs parental; conditions: Clone #22, Hct116, resistance generated with compound 4, A1978G / N660D; 72 hrs
Method: as §1

[19] = system: Hct116 resistant cell line clone #27 (p97 T688A); experiment: GI50 fold-change, resistant clone #27 vs parental; conditions: Clone #27, Hct116, resistance generated with compound 4, A2062G / T688A; 72 hrs
Method: as §1

[20] = system: Hct116 resistant cell line clone #29 (p97 N660K); experiment: GI50 fold-change, resistant clone #29 vs parental; conditions: Clone #29, Hct116, resistance generated with compound 4, C1980A / N660K; 72 hrs
Method: as §1

[21] = system: Hct116 resistant cell line clone #31 (p97 C535Y); experiment: GI50 fold-change, resistant clone #31 vs parental; conditions: Clone #31, Hct116, resistance generated with compound 4, G1604A / C535Y; 72 hrs
Method: as §1

[22] = system: Hct116 resistant cell line clone #33 (p97 P472L); experiment: GI50 fold-change, resistant clone #33 vs parental; conditions: Clone #33, Hct116, resistance generated with compound 4, C1415T / P472L; 72 hrs
Method: as §1

[23] = system: Hct116 resistant cell line clone #34 (p97 E470D/E); experiment: GI50 fold-change, resistant clone #34 vs parental; conditions: Clone #34, Hct116, resistance generated with compound 4, G1410T/G / E470D/E; 72 hrs
Method: as §1

[24] = system: Hct116 resistant cell line clone #47 (p97 E498D); experiment: GI50 fold-change, resistant clone #47 vs parental; conditions: Clone #47, Hct116, resistance generated with compound 4, G1494T / E498D; 72 hrs
Method: as §1

[25] = system: Hct116 resistant cell line clone #90 (p97 Q473P); experiment: GI50 fold-change, resistant clone #90 vs parental; conditions: Clone #90, Hct116, resistance generated with compound 4, A1418C / Q473P; 72 hrs
Method: as §1

[26] = system: Hct116 resistant cell line clone #137 (p97 T475I); experiment: GI50 fold-change, resistant clone #137 vs parental; conditions: Clone #137, Hct116, resistance generated with compound 4, C1424T / T475I; 72 hrs
Method: as §1

[27] = system: Hct116 resistant cell line clone #180 (p97 A569T); experiment: GI50 fold-change, resistant clone #180 vs parental; conditions: Clone #180, Hct116, resistance generated with compound 4, G1705A / A569T; 72 hrs
Method: as §1

[28] = system: Hct116 resistant cell line clone #207 (p97 V485D); experiment: GI50 fold-change, resistant clone #207 vs parental; conditions: Clone #207, Hct116, resistance generated with compound 4, T1454A / V485D; 72 hrs
Method: as §1

SMILES | Fold Change in GI50 Compared to Parental Cell Line [2] [fold] | Fold Change in GI50 Compared to Parental Cell Line [3] [fold] | Fold Change in GI50 Compared to Parental Cell Line [4] [fold] | Fold Change in GI50 Compared to Parental Cell Line [5] [fold] | Fold Change in GI50 Compared to Parental Cell Line [6] [fold] | Fold Change in GI50 Compared to Parental Cell Line [7] [fold] | Fold Change in GI50 Compared to Parental Cell Line [8] [fold] | Fold Change in GI50 Compared to Parental Cell Line [9] [fold] | Fold Change in GI50 Compared to Parental Cell Line [11] [fold] | Fold Change in GI50 Compared to Parental Cell Line [12] [fold] | Fold Change in GI50 Compared to Parental Cell Line [13] [fold] | Fold Change in GI50 Compared to Parental Cell Line [14] [fold] | Fold Change in GI50 Compared to Parental Cell Line [15] [fold] | Fold Change in GI50 Compared to Parental Cell Line [16] [fold] | Fold Change in GI50 Compared to Parental Cell Line [17] [fold] | other results
COc1nc2ccccc2n1-c1nc2c(c(NCc3ccccc3)n1)CCCC2 [Compound 2, N-benzyl-2-(2-methoxy-1H-1,3-benzodiazol-1-yl)-5,6,7,8-tetrahydroquinazolin-4-amine] | 1.4 | 1.1 | 0.6 | 2.6 | 1.3 | 1.3 | 2.1 | 2.2 | – | – | – | – | – | – | – | Fold Change in GI50 Compared to Parental Cell Line [1]: 4.5 fold
Cc1cc2c(C(N)=O)cccc2n1-c1nc2c(c(NCc3ccccc3)n1)CNCC2 [Compound 3, 1-[4-(benzylamino)-5H,6H,7H,8H-pyrido[4,3-d]pyrimidin-2-yl]-2-methyl-1H-indole-4-carboxamide] | 2.0 | 1.0 | 1.2 | 2.4 | 34.6 | 1.6 | 40.2 | 4.1 | 2.2 | 10.0 | 7.0 | 6.9 | 4.9 | 4.4 | 4.2 | Fold Change in GI50 Compared to Parental Cell Line [10]: 13.4 fold
Cc1cc2c(CN)cccc2n1-c1nc2c(c(NCc3ccccc3)n1)CCCC2 [Compound 6, 2-[4-(aminomethyl)-2-methyl-1H-indol-1-yl]-N-benzyl-5,6,7,8-tetrahydroquinazolin-4-amine] | 2.0 | 3.3 | 2.7 | 1.3 | 0.9 | 1.6 | 1.4 | 2.2 | 1.9 | 4.1 | 3.5 | 3.4 | 4.5 | 2.3 | 3.5 | Fold Change in GI50 Compared to Parental Cell Line [18]: 1.8 fold; Fold Change in GI50 Compared to Parental Cell Line [19]: 2.3 fold; Fold Change in GI50 Compared to Parental Cell Line [20]: 3.8 fold; Fold Change in GI50 Compared to Parental Cell Line [21]: 3.3 fold; Fold Change in GI50 Compared to Parental Cell Line [22]: 5.3 fold; Fold Change in GI50 Compared to Parental Cell Line [23]: 2.7 fold; Fold Change in GI50 Compared to Parental Cell Line [24]: 1.8 fold; Fold Change in GI50 Compared to Parental Cell Line [25]: 2.1 fold; Fold Change in GI50 Compared to Parental Cell Line [26]: 2.8 fold; Fold Change in GI50 Compared to Parental Cell Line ([8]; listed as compound 6): 1.4 fold and 1.42 fold; Fold Change in GI50 Compared to Parental Cell Line [27]: 3.4 fold; Fold Change in GI50 Compared to Parental Cell Line [28]: 2.7 fold
